From US20080269251A1, “Substituted Pyrazinone Derivatives as Alpha2C-Adrenoreceptor Antagonists” (priority 2005, published 2008) come the findings set out here.

One test has as its target T1, 5HT-transporter (Homo sapiens, UniProt P31645).
T1 construct: Human platelet membranes (Oceanix Biosciences Corporation, Hanover, Md., USA) were thawed; tissue Oceanix Biosciences Corporation, Hanover, Md., USA; host or cells: human platelet membranes
In words: Binding experiment for the 5HT-transporter ([3H]paroxetine, human platelet membranes). To be noted: [3H]paroxetine 0.5 nM, 60 min at 25° C.; for IC50: read-out: h-5HTT pIC50 (converted). The method, boiled down:
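Competition binding of [3H]paroxetine to human platelet membranes in Tris-HCl 50 mM with 120 mM NaCl and 5 mM KCl; bound radioligand separated by GF/B filtration and counted.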

For test [1], the target named is T2, human adrenergic-α2C receptor (Homo sapiens, UniProt P18825).
T2 construct: expressed in transfected cells; host or cells: CHO cells, stably transfected; membrane preparation
T2 sequence (P18825 1-462): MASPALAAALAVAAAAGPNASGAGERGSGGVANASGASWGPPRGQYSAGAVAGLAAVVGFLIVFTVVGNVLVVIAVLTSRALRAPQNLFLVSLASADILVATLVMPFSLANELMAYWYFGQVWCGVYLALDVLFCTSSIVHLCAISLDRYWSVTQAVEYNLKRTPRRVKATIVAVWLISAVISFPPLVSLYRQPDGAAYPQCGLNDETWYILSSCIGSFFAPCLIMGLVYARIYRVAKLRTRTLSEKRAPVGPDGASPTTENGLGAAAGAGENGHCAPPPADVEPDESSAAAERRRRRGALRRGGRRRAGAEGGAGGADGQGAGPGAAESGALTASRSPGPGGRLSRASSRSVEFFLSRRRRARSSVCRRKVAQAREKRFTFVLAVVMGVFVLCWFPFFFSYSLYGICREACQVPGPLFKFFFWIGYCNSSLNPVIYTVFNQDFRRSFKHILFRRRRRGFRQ
The experiment in a line: Radioligand binding experiment for hα2C-adrenoceptor ([3H]raulwolscine). Conditions: [3H]raulwolscine 1 nM, 60 minutes at 25° C.; for IC50: read-out: h-α2C pIC50 (converted). The method, boiled down:
(§1)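 CHO membranes expressing human α2A or α2C receptors were incubated with 1 nM [^3H]raulwolscine for 60 min at 25° C in glycylglycine 25 mM, pH 8.0, then filtered. Nonspecific binding was defined with 1 μM oxymetazoline for α2A and 1 μM spiroxatrine for α2C. pIC50 came from sigmoidal competition curves.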

The target in test [2] is T3, human adrenergic-α2A receptor (Homo sapiens, UniProt P08913).
T3 construct: expressed in transfected cells; host or cells: CHO cells, stably transfected; membrane preparation
T3 sequence (P08913 1-465): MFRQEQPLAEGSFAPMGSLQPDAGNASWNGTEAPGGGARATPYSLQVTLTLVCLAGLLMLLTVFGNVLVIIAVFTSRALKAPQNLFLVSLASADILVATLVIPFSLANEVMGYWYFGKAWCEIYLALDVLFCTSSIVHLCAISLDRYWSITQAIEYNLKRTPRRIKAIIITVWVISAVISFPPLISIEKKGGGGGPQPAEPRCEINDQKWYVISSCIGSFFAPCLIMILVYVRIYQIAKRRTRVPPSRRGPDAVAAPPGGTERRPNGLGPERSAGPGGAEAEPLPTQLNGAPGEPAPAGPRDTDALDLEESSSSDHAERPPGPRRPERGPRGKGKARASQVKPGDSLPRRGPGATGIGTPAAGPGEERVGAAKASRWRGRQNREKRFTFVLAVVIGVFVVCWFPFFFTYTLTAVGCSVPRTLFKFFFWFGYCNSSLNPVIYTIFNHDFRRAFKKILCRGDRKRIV
In words: Radioligand binding experiment for hα2A-adrenergic receptor ([3H]raulwolscine). Conditions: [3H]raulwolscine 1 nM, 60 minutes at 25° C.; for IC50: read-out: h-α2A pIC50 (converted). The method, boiled down: as §1

T1 sequence (P31645 whole entry): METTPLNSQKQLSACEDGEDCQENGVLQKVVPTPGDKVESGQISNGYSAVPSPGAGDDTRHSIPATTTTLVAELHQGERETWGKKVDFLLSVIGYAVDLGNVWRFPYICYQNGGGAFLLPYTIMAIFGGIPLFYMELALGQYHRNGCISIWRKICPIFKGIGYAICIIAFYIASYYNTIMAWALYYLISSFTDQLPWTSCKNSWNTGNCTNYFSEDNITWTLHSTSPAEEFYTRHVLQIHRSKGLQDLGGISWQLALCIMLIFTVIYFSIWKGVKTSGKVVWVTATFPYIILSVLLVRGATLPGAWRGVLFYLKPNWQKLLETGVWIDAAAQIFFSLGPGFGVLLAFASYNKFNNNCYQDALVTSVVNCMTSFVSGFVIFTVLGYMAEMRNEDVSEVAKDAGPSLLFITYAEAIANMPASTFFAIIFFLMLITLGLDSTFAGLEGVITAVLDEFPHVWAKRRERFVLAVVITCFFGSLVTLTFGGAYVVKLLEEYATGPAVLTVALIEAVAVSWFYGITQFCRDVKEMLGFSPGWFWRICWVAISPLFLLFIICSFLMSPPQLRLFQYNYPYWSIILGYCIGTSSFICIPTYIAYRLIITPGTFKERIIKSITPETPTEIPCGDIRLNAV

Consider `O=c1c(NC2CCN(Cc3ccc4ccccc4c3)CC2)nccn1-c1ccc(CN2CCC(F)CC2)c(F)c1` [2-13], for which the IC50 on 5HT-transporter was 6.31 nM; in test [1] it was 3.98 nM; in test [2], 63.1 nM.

As for `O=c1c(NC2CCN(Cc3ccc4ccccc4c3)CC2)nccn1-c1ccc(CN2CCC(O)CC2)cc1` [2-14], the IC50 at 5HT-transporter is 5.01 nM; in test [1] it was 10 nM; in test [2], 158 nM.

With `O=C(Cn1ccnc(NC2CCN(Cc3ccc4ccccc4c3)CC2)c1=O)N1CCC(Cc2ccccc2)CC1` [2-15], the IC50 on 5HT-transporter is 200 nM; in test [1] it was 31.6 nM; in test [2] it was 251 nM.

With `O=C(Cn1ccnc(NC2CCN(Cc3ccc4ccccc4c3)CC2)c1=O)N1CCC(C(F)(F)F)CC1` [2-16], the figures for the IC50 (at 5HT-transporter; in test [1]; in test [2]) were 1260 nM, 126 nM and 501 nM, respectively.

With `O=c1c(NC2CCN(Cc3ccc4ccccc4c3)CC2)nccn1-c1ccc(CN2CCC(Oc3cccnc3)CC2)cc1` [2-17], the “h-5HTT pIC50” value at 5HT-transporter was 8.6. Moreover, the “h-α2C pIC50” value in test [1] was 8.2. In test [2], the “h-α2A pIC50” value is 6.6.

With `O=c1c(NC2CCN(Cc3ccc4ccccc4c3)CC2)nccn1CCO` [3-01], the IC50 is 100 nM on 5HT-transporter, 25.1 nM in test [1] and 251 nM in test [2].

For `O=c1c(NC2CCN(Cc3ccc4ccccc4c3)CC2)nccn1CCCO` [3-02], the IC50 at 5HT-transporter is 200 nM; in test [1] it was 100 nM; in test [2] it was 631 nM.

`O=c1c(NC2CCN(Cc3ccc4ccccc4c3)CC2)nccn1CCCCO` [3-03]: the figures for the IC50 (at 5HT-transporter; in test [1]; in test [2]) were 158 nM, 63.1 nM and 398 nM, respectively.

Take `COC(=O)CCn1ccnc(NC2CCN(Cc3ccc4ccccc4c3)CC2)c1=O` [3-04]: the figures for the IC50 (on 5HT-transporter; in test [1]; in test [2]) were 398 nM, 79.4 nM and 1000 nM, respectively.

Take `CCOC(=O)CCCn1ccnc(NC2CCN(Cc3ccc4ccccc4c3)CC2)c1=O` [3-06]: the IC50 is 79.4 nM at 5HT-transporter, 63.1 nM in test [1] and 200 nM in test [2].

`CCOC(=O)CCCCn1ccnc(NC2CCN(Cc3ccc4ccccc4c3)CC2)c1=O` [3-08]: the IC50 at 5HT-transporter was 10 nM; in test [1], 12.6 nM; in test [2] it was 79.4 nM.

For the compound `O=c1c(NC2CCN(Cc3ccc4ccccc4c3)CC2)nccn1CCOc1ccccc1` [3-09], the figures for the IC50 (on 5HT-transporter; in test [1]; in test [2]) were 12.6 nM, 100 nM and 316 nM, respectively.

As for `O=c1c(NC2CCN(Cc3ccc4ccccc4c3)CC2)nccn1CCCOc1ccccc1` [3-10], the IC50 on 5HT-transporter is 15.8 nM; in test [1] it was 50.1 nM; in test [2], 126 nM.

For `O=c1c(NC2CCN(Cc3ccc4ccccc4c3)CC2)nccn1CCCOCc1ccccc1` [3-11], the IC50 was 20 nM on 5HT-transporter, 25.1 nM in test [1] and 251 nM in test [2].

Regarding `O=c1c(NC2CCN(Cc3ccc4ccccc4c3)CC2)nccn1CCOC1CCCCO1` (stereo not drawn) [3-12], the values for the IC50 (on 5HT-transporter; in test [1]; in test [2]) were 79.4 nM, 79.4 nM and 631 nM, respectively.

On to `O=c1c(NC2CCN(Cc3ccc4ccccc4c3)CC2)nccn1-c1ccc(COCC2CCCO2)cc1` (stereo not drawn) [3-14], for which the results for the IC50 (on 5HT-transporter; in test [1]; in test [2]) were 15.8 nM, 3.98 nM and 251 nM, respectively.

In the case of `CCOC(CCn1ccnc(NC2CCN(Cc3ccc4ccccc4c3)CC2)c1=O)OC` (stereo not drawn) [4-01], the IC50 on 5HT-transporter was 200 nM; in test [1], 100 nM; in test [2] it was 1260 nM.

`CCOC(CCn1ccnc(NC2CCN(Cc3ccc4ccccc4c3)CC2)c1=O)OCC` [4-02]: the IC50 on 5HT-transporter was 251 nM; in test [1], 79.4 nM; in test [2] it was 794 nM.

For `COC(CCn1ccnc(NC2CCN(Cc3ccc4ccccc4c3)CC2)c1=O)OC` [4-03], the IC50 is 316 nM at 5HT-transporter, 100 nM in test [1] and 1000 nM in test [2].

Consider `O=c1c(NC2CCN(Cc3ccc4ccccc4c3)CC2)nccn1CCC1OCCO1` [4-04], for which the IC50 is 158 nM at 5HT-transporter, 79.4 nM in test [1] and 501 nM in test [2].

Consider `O=c1c(NC2CCN(Cc3ccc4ccccc4c3)CC2)nccn1-c1ccc2c(c1)OCCO2` [4-05], for which the figures for the IC50 (on 5HT-transporter; in test [1]; in test [2]) were 10 nM, 31.6 nM and 20 nM, respectively.

In the case of `O=c1[nH]ccnc1NC1CCN(Cc2ccc3ccccc3c2)CC1` [5-01], the results for the IC50 (on 5HT-transporter; in test [1]; in test [2]) were 1260 nM, 126 nM and 501 nM, respectively.

As to `CCCn1ccnc(NC2CCN(Cc3ccc4ccccc4c3)CC2)c1=O` [5-02], the IC50 at 5HT-transporter was 100 nM; in test [1], 63.1 nM; in test [2], 158 nM.

With `CC(=O)Cn1ccnc(NC2CCN(Cc3ccc4ccccc4c3)CC2)c1=O` [5-03], the figures for the IC50 (on 5HT-transporter; in test [1]; in test [2]) were 1000 nM, 100 nM and 200 nM, respectively.

Consider `CC(C)(C)C(=O)Cn1ccnc(NC2CCN(Cc3ccc4ccccc4c3)CC2)c1=O` [5-04], for which the IC50 was 398 nM at 5HT-transporter, 39.8 nM in test [1] and 200 nM in test [2].

As for `N#CCCn1ccnc(NC2CCN(Cc3ccc4ccccc4c3)CC2)c1=O` [5-05], the IC50 is 316 nM on 5HT-transporter, 200 nM in test [1] and 398 nM in test [2].

Take `O=c1c(NC2CCN(Cc3ccc4ccccc4c3)CC2)nccn1CCCC(c1ccc(F)cc1)c1ccc(F)cc1` [5-07]: the IC50 was 158 nM at 5HT-transporter, 158 nM in test [1] and 316 nM in test [2].

For `O=C(CCn1ccnc(NC2CCN(Cc3ccc4ccccc4c3)CC2)c1=O)c1ccccc1` [5-08], the IC50 on 5HT-transporter is 15.8 nM; in test [1], 50.1 nM; in test [2] it was 100 nM.

For `O=c1c(NC2CCN(Cc3ccc4ccccc4c3)CC2)nccn1Cc1cccc([N+](=O)[O-])c1` [5-09], the IC50 on 5HT-transporter was 50.1 nM; in test [1] it was 79.4 nM; in test [2], 200 nM.

For the compound `O=Cc1ccc(-n2ccnc(NC3CCN(Cc4ccc5ccccc5c4)CC3)c2=O)cc1` [5-10], the IC50 was 100 nM at 5HT-transporter, 63.1 nM in test [1] and 316 nM in test [2].

As for `O=Cc1ccc(-n2ccnc(NC3CCN(Cc4ccc5ccccc5c4)CC3)c2=O)cc1F` [5-11], the IC50 is 39.8 nM on 5HT-transporter, 63.1 nM in test [1] and 398 nM in test [2].

Regarding `O=c1c(NC2CCN(Cc3ccc4ccccc4c3)CC2)nccn1Cc1cccc(Br)c1` [5-13], the results for the IC50 (on 5HT-transporter; in test [1]; in test [2]) were 126 nM, 126 nM and 200 nM, respectively.

As to `O=c1c(NC2CCN(Cc3ccc4ccccc4c3)CC2)nccn1-c1nccs1` [6-01], the IC50 at 5HT-transporter is 20 nM; in test [1] it was 63.1 nM; in test [2], 251 nM.

As for `O=c1c(NC2CCN(Cc3ccc4ccccc4c3)CC2)nccn1-c1ccc2[nH]ccc2c1` [6-02], the IC50 is 25.1 nM at 5HT-transporter, 31.6 nM in test [1] and 126 nM in test [2].

For `O=c1c(NC2CCN(Cc3ccc4ccccc4c3)CC2)nccn1-c1ccc2cc[nH]c2c1` [6-03], the values for the IC50 (on 5HT-transporter; in test [1]; in test [2]) were 50.1 nM, 39.8 nM and 50.1 nM, respectively.

Consider `O=c1c(NC2CCN(Cc3ccc4ccccc4c3)CC2)nccn1-c1csc2ccccc12` [6-04], for which the IC50 on 5HT-transporter is 31.6 nM; in test [1], 50.1 nM; in test [2], 251 nM.

For the compound `O=c1c(NC2CCN(Cc3ccc4ccccc4c3)CC2)nccn1-c1cncnc1` [6-08], the IC50 on 5HT-transporter was 200 nM; in test [1], 200 nM; in test [2] it was 631 nM.

Take `O=c1c(NC2CCN(Cc3ccc4ccccc4c3)CC2)nccn1-c1cnc2ccccc2c1` [6-09]: the IC50 at 5HT-transporter was 50.1 nM; in test [1], 126 nM; in test [2], 200 nM.

For the compound `O=c1c(NC2CCN(Cc3ccc4ccccc4c3)CC2)nccn1Cc1cc2ccccc2cn1` [6-10], the IC50 on 5HT-transporter is 126 nM; in test [1], 63.1 nM; in test [2], 251 nM.
